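Briefly, cells in 96-well plates were exposed to five compound concentrations for 48 h, and endpoints were estimated by linear interpolation. Here, GI50 denotes the concentration required for 50% inhibition of growth.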 Activity calls are given as the source filed them. Rule as the data show it: active = GI50 up to about 1.1 µM and inactive = higher.
How the values were obtained:
Test in all cases: growth of human tumour cells (NCI), 48 h
ACHN = test system: ACHN
BT-549 = test system: BT-549
CCRF-CEM = test system: CCRF-CEM
COLO 205 = test system: COLO 205
EKVX = test system: EKVX
HCT-116 = test system: HCT-116
HL-60 = test system: HL-60
HOP-62 = test system: HOP-62
MDA-MB-231 = test system: MDA-MB-231
Malme-3M = test system: Malme-3M
NCI/ADR-RES = test system: NCI/ADR-RES
OVCAR-3 = test system: OVCAR-3
RXF 393 = test system: RXF 393
SF-268 = test system: SF-268
SF-295 = test system: SF-295
SF-539 = test system: SF-539
SN12C = test system: SN12C
SNB-19 = test system: SNB-19
U-251 = test system: U-251
OVCAR-4 = test system: OVCAR-4

SMILES | GI50 (ACHN) | GI50 (BT-549) | GI50 (CCRF-CEM) | GI50 (COLO 205) | GI50 (EKVX) | GI50 (HCT-116) | GI50 (HL-60) | GI50 (HOP-62) | GI50 (MDA-MB-231) | GI50 (Malme-3M) | GI50 (NCI/ADR-RES) | GI50 (OVCAR-3) | GI50 (RXF 393) | GI50 (SF-268) | GI50 (SF-295) | GI50 (SF-539) | GI50 (SN12C) | GI50 (SNB-19) | GI50 (U-251) | GI50 (OVCAR-4)
COCCN(C(C)=O)C1CCC2(SCCS2)c2[nH]c3ccccc3c21 (stereo not drawn) | > 100 µM (inactive) | > 100 µM (inactive) | > 100 µM (inactive) | > 100 µM (inactive) | > 100 µM (inactive) | > 100 µM (inactive) | > 100 µM (inactive) | > 100 µM (inactive) | > 100 µM (inactive) | > 100 µM (inactive) | > 100 µM (inactive) | > 100 µM (inactive) | > 100 µM (inactive) | > 100 µM (inactive) | > 100 µM (inactive) | > 100 µM (inactive) | > 100 µM (inactive) | > 100 µM (inactive) | > 100 µM (inactive) | –
CCOC(=O)c1cc(C(O)P2(=O)N(CC(C)(C)C)[C@@H]3CCCC[C@H]3N2CC(C)(C)C)cn1C(=O)OC(C)(C)C (stereo partly drawn) | 28.1 µM (inactive) | 17 µM (inactive) | – | 17.3 µM (inactive) | 20.5 µM (inactive) | 11.2 µM (inactive) | 24.5 µM (inactive) | 13.7 µM (inactive) | 16 µM (inactive) | 13.7 µM (inactive) | 16.8 µM (inactive) | 12.3 µM (inactive) | 12 µM (inactive) | 15.8 µM (inactive) | 15 µM (inactive) | – | 13.3 µM (inactive) | 19.5 µM (inactive) | 15.9 µM (inactive) | 13.9 µM (inactive)
C[C@]12CC[C@@H]3c4ccc(OC(=O)c5ccccc5)cc4CC[C@H]3[C@@H]1CC[C@@H]2Oc1c2ccccc2nc2ccccc12 | 37 µM (inactive) | 9.98 µM (inactive) | 0.0161 µM (active) | 15.1 µM (inactive) | 1.52 µM (inactive) | 7.8 µM (inactive) | 2.95 µM (inactive) | 8.17 µM (inactive) | 11.5 µM (inactive) | 7.94 µM (inactive) | 11.4 µM (inactive) | 7.66 µM (inactive) | 8.09 µM (inactive) | 3.93 µM (inactive) | 16 µM (inactive) | – | – | 7.45 µM (inactive) | 8.41 µM (inactive) | 15.8 µM (inactive)
Cc1cn(CCCCCCOC(=O)NC(CCCNC(=N)N)C(=O)O)c(=O)[nH]c1=O (stereo not drawn) | > 100 µM (inactive) | > 100 µM (inactive) | > 100 µM (inactive) | > 100 µM (inactive) | > 100 µM (inactive) | > 100 µM (inactive) | > 100 µM (inactive) | > 100 µM (inactive) | > 100 µM (inactive) | – | > 100 µM (inactive) | > 100 µM (inactive) | > 100 µM (inactive) | > 100 µM (inactive) | > 100 µM (inactive) | > 100 µM (inactive) | > 100 µM (inactive) | > 100 µM (inactive) | > 100 µM (inactive) | > 100 µM (inactive)
CC1(C)C=C(/C=C2/N(S(=O)(=O)C(F)(F)F)C(/C=C3/N(S(=O)(=O)C(F)(F)F)C(C)(C#N)CC3(C)C)=CC2(C)C)N=C1/C=C1/CC(C)(C)C(=O)N1 (stereo not drawn) | 23.7 µM (inactive) | 27.2 µM (inactive) | 2.84 µM (inactive) | 14.2 µM (inactive) | 8.45 µM (inactive) | 3.73 µM (inactive) | 1.41 µM (inactive) | 9.44 µM (inactive) | 23.1 µM (inactive) | – | 23.3 µM (inactive) | 7.62 µM (inactive) | 18.6 µM (inactive) | 5.79 µM (inactive) | 14.3 µM (inactive) | 24.8 µM (inactive) | 22.3 µM (inactive) | 52.5 µM (inactive) | 24.7 µM (inactive) | 7.38 µM (inactive)
NNC(=O)CSc1nc2ccc(I)cc2c(=O)n1Cc1ccccc1 | 18.7 µM (inactive) | 23.2 µM (inactive) | 3.89 µM (inactive) | 21.5 µM (inactive) | 13.1 µM (inactive) | 18.4 µM (inactive) | 20.6 µM (inactive) | 19 µM (inactive) | 14.3 µM (inactive) | – | 40.6 µM (inactive) | 18.4 µM (inactive) | 13.1 µM (inactive) | 17.5 µM (inactive) | 21.9 µM (inactive) | 19.7 µM (inactive) | 21.3 µM (inactive) | 23.3 µM (inactive) | 20.3 µM (inactive) | 19.5 µM (inactive)
C#CCOC(=O)C(N)CSSCC(N)C(=O)O (stereo not drawn) | > 100 µM (inactive) | > 100 µM (inactive) | > 100 µM (inactive) | > 100 µM (inactive) | > 100 µM (inactive) | > 100 µM (inactive) | > 100 µM (inactive) | > 100 µM (inactive) | > 100 µM (inactive) | > 100 µM (inactive) | > 100 µM (inactive) | – | > 100 µM (inactive) | > 100 µM (inactive) | – | > 100 µM (inactive) | > 100 µM (inactive) | > 100 µM (inactive) | > 100 µM (inactive) | > 100 µM (inactive)
Nc1c(Cl)ncnc1N[C@@H]1C[C@H]1CO | > 100 µM (inactive) | > 100 µM (inactive) | > 100 µM (inactive) | > 100 µM (inactive) | > 100 µM (inactive) | > 100 µM (inactive) | > 100 µM (inactive) | > 100 µM (inactive) | > 100 µM (inactive) | – | > 100 µM (inactive) | > 100 µM (inactive) | > 100 µM (inactive) | > 100 µM (inactive) | > 100 µM (inactive) | > 100 µM (inactive) | > 100 µM (inactive) | > 100 µM (inactive) | > 100 µM (inactive) | > 100 µM (inactive)
CCO[C@@H]1CCC([S+]([O-])c2ccc(C)cc2)=CO1 (stereo partly drawn) | > 100 µM (inactive) | > 100 µM (inactive) | – | > 100 µM (inactive) | > 100 µM (inactive) | > 100 µM (inactive) | 69.7 µM (inactive) | > 100 µM (inactive) | > 100 µM (inactive) | > 100 µM (inactive) | > 100 µM (inactive) | > 100 µM (inactive) | > 100 µM (inactive) | > 100 µM (inactive) | > 100 µM (inactive) | – | > 100 µM (inactive) | > 100 µM (inactive) | > 100 µM (inactive) | > 100 µM (inactive)
COc1ccc(OC)c(C2CCc3c(cnc4nc(N)nc(N)c34)C2)c1 (stereo not drawn) | 3.91 µM (inactive) | 14.3 µM (inactive) | – | 16.1 µM (inactive) | 1.58 µM (inactive) | 1.83 µM (inactive) | 10.4 µM (inactive) | 12.2 µM (inactive) | 12.2 µM (inactive) | 4.83 µM (inactive) | 55.3 µM (inactive) | 15.5 µM (inactive) | 15.8 µM (inactive) | 4.21 µM (inactive) | 7.23 µM (inactive) | 22.8 µM (inactive) | 8.83 µM (inactive) | 6.92 µM (inactive) | 4.79 µM (inactive) | 10.2 µM (inactive)
CSc1[nH]cnc1C(N)=S | > 100 µM (inactive) | > 100 µM (inactive) | – | > 100 µM (inactive) | > 100 µM (inactive) | > 100 µM (inactive) | > 100 µM (inactive) | > 100 µM (inactive) | > 100 µM (inactive) | > 100 µM (inactive) | > 100 µM (inactive) | > 100 µM (inactive) | > 100 µM (inactive) | > 100 µM (inactive) | > 100 µM (inactive) | > 100 µM (inactive) | – | > 100 µM (inactive) | > 100 µM (inactive) | –

Source: ChEMBL document CHEMBL1201862, “PubChem BioAssay data set” (2004)
